Laboratory results from patent US20160237044A1, “SUBSTITUTED PHENYLALANINE DERIVATIVES” (BAYER PHARMA AKTIENGESELLSCHAFT, priority 2013, published 2016).
Counter-ions that a name gives are not always drawn.

How the values were obtained:
human factor XIa = target: T1, human factor XIa (Homo sapiens, UniProt P03951); assay: Measurement of FXIa inhibition (fluorogenic peptide substrate Boc-Glu(OBzl)-Ala-Arg-AMC); type: biochemical; settings: factor XIa from Kordia, 15 min preincubation, 30 min at 22° C., fluorescence; read-out: IC50
T1 construct: purchased Kordia
T1 sequence (P03951 388-625 limits assumed): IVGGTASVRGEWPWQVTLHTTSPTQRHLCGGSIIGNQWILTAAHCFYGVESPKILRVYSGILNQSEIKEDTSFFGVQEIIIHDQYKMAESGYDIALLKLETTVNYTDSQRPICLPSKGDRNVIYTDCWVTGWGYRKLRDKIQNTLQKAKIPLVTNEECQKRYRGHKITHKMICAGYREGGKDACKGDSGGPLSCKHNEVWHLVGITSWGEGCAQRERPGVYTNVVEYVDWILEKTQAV
T1 sequence (P03951 19-387 partner limits assumed): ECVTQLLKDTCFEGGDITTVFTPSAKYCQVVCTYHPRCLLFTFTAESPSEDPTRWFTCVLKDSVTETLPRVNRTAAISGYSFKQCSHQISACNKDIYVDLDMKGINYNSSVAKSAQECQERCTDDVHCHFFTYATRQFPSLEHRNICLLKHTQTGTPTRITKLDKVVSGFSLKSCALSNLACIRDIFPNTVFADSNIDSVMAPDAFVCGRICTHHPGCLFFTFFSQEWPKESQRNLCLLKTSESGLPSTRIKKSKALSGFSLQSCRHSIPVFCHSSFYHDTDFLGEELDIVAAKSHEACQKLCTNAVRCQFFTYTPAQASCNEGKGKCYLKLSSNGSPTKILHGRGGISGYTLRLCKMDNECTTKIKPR
Method: a.1) Measurement of FXIa Inhibition
The factor XIa inhibition of the substances according to the invention is determined using a biochemical test system which utilizes the reaction of a peptidic factor XIa substrate to determine the enzymatic activity of human factor XIa. Here, factor XIa cleaves from the peptic factor XIa substrate the C-terminal aminomethylcoumarin (AMC), the fluorescence of which is measured. The determinations are carried out in microtitre plates.
(§1) In each case 1 μl of the diluted substance solutions is placed into the wells of white microtitre plates from Greiner (384 wells). […] After 15 min of incubation, the enzyme reaction is started by addition of 20 μl of the factor XIa substrate Boc-Glu(OBzl)-Ala-Arg-AMC dissolved in assay buffer (10 μM in assay buffer) from Bachem, the mixture is incubated at room temperature (22° C.) for 30 min and fluorescence is then measured (excitation: 360 nm, emission: 460 nm). The measured emissions of the test batches with test substance are compared to those of control batches without test substance (only dimethyl sulphoxide instead of test substance in dimethyl sulphoxide), and IC50 values are calculated from the concentration/activity relationships.

plasma = assay: Determination of anticoagulatory activity: activated partial thromboplastin time (aPTT) in plasma; type: biochemical, human; settings: concentration of test substance which brings about a 1.5-fold extension of the aPTT, C.K. Prest kit, 37° C.
Method: a.4) Determination of Anticoagulatory Activity
The anticoagulatory activity of the test substances is determined in vitro in human and animal plasma (for example mouse, rat, rabbit, pig and dog plasma). To this end, blood is drawn off in a mixing ratio of sodium citrate/blood of 1:9 using a 0.11 molar sodium citrate solution as receiver. Immediately after the blood has been drawn off, it is mixed thoroughly and centrifuged at about 4000 g for 15 minutes. The supernatant is pipetted off.
The activated partial thromboplastin time (aPTT) is determined in the presence of varying concentrations of test substance or the corresponding solvent using a commercial test kit (C.K. Prest from Diagnostica Stago). The test compounds are incubated with the plasma and the PTT reagent (cephalin, kaolin) at 37° C. for 3 minutes. Coagulation is then started by addition of a 25 mM aqueous calcium chloride solution, and the time when coagulation occurs is determined. The concentration of test substance which brings about a 1.5-fold extension of the aPTT is determined.

human plasmin = target: T2, human plasmin (Homo sapiens, UniProt P00747); assay: Measurement of plasmin inhibition (fluorogenic peptide substrate MeOSuc-Ala-Phe-Lys-AMC); type: biochemical; settings: plasmin from Kordia, 15 min preincubation, 30 min at 22° C., fluorescence
T2 construct: purchased Kordia
T2 sequence (P00747 581-810 limits assumed): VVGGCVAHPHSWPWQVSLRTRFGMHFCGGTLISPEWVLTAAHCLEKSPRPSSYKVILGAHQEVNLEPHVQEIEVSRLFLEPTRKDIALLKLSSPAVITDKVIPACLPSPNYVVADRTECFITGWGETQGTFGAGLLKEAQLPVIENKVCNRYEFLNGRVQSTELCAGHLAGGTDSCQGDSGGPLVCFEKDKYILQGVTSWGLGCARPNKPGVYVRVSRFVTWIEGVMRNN
T2 sequence (P00747 97-580 partner limits assumed): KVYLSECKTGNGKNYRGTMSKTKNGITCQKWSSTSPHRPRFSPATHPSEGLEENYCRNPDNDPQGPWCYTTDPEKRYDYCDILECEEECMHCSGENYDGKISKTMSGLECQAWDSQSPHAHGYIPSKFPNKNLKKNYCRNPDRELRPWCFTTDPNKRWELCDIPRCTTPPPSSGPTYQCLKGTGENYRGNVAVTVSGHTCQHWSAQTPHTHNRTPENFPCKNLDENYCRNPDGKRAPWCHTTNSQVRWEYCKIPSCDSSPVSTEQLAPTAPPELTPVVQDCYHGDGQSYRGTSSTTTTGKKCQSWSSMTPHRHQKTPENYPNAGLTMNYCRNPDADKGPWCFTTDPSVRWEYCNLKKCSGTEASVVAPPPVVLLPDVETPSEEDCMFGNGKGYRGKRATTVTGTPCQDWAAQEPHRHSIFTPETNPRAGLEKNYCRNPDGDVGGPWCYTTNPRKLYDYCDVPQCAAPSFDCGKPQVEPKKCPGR
Method: a.6) Measurement of Plasmin Inhibition
The plasmin inhibition of the inventive substances is determined using a biochemical test system which utilizes the reaction of a peptidic plasmin substrate to determine the enzymatic activity of human plasmin. Here, plasmin cleaves from the peptic plasmin substrate the C-terminal aminomethylcoumarin (AMC), the fluorescence of which is measured. The determinations are carried out in microtitre plates.
as §1, with “Test substances are dissolved in dimethyl sulphoxide and serially diluted in dimethyl sulphoxide (3000 μM to 0.0078 μM; resulting final concentrations in the test: 50 μM to 0.00013 μM). In” for “In”, “plasmin” for “factor XIa”, “MeOSuc-Ala-Phe-Lys-AMC” for “Boc-Glu(OBzl)-Ala-Arg-AMC”, “(150” for “(10”

Row | IC50 (human factor XIa) | IC50 (human plasmin) | Structure (SMILES) | Concentration for 1.5-fold aPTT extension (plasma)
1 | 0.0028 µM | 0.023 µM | Cc1cc(S(=O)(=O)N2CCCC2)ccc1-c1ccc(C[C@H](NC(=O)[C@H]2CC[C@H](CN)CC2)C(=O)Nc2ccc3c(=O)[nH][nH]c3c2)cc1 [Example 15, trans-4-(Aminomethyl)-N-{(2S)-3-[2′-methyl-4′-(pyrrolidin-1-ylsulphonyl)biphenyl-4-yl]-1-oxo-1-[(3-oxo-2,3-dihydro-1H-indazol-6-yl)amino]propan-2-yl}cyclohexanecarboxamide hydrochloride] | 0.09 µmol/L
2 | 0.0027 µM | 0.03 µM | Cc1cc(S(=O)(=O)NC2CC2)ccc1-c1ccc(C[C@H](NC(=O)[C@H]2CC[C@H](CN)CC2)C(=O)Nc2ccc3c(=O)[nH][nH]c3c2)cc1 [Example 12, trans-4-(Aminomethyl)-N-{(2S)-3-[4′-(cyclopropylsulphamoyl)-2′-methylbiphenyl-4-yl]-1-oxo-1-[(3-oxo-2,3-dihydro-1H-indazol-6-yl)amino]propan-2-yl}cyclohexanecarboxamide hydrochloride] | 0.04 µmol/L
